The record followed here is patent US11066421B1, “Synthetic cinchona alkaloids against cancer” (Ares Pharmaceuticals, LLC, priority 2021, dated 2021).

In one assay the test system is NALM-6. Kind of assay: MTT cytotoxicity assay, NALM-6. In kind it is cell-based, human. The note with it: 48 h, read-out: IC50 against NALM-6. As for the experimental part:
(§1) Human B-lineage acute lymphoblastic leukemia (ALL) cell line NALM-6 and T-lineage ALL/lymphoma cell line MOLT-3 were obtained from American Type Culture Collection (Manassas, Va.). Cell lines were propagated in RPMI 1640 supplemented with 10% FCS, 4 mM glutamine, 100 units/ml penicillin G, and […] streptomycin sulfate. All tissue culture reagents were obtained from Life Technologies Inc. (Life Technologies, Inc., Gaithersburg, Md.). Cell lines were cultivated for a minimum of two passages after thawing prior to experimentation.
(§2) The cytotoxicity of the compounds were tested against human ALL cell lines using MTT assays (Roche Molecular Biochemicals, Indianapolis, Ind.), as described previously R. K. Narla et al., 1998, Clin Cancer Res 4:1405-14). Briefly, exponentially growing tumor cells were seeded into a 96-well plate at a density of 4×10^4 cells/well and incubated in medium containing the cinchona alkaloid compounds at concentrations ranging from 0.7 to 100 μM for 48 h at 37° C. in a humidified 5% CO2 atmosphere. To each well, 10 μL of MTT (final concentration, 0.5 mg/ml) was added, and the plates were incubated at 37° C. for 4 h to allow MTT to form formazan crystals by reacting with metabolically active cells. The formazan crystals were solubilized overnight at 37° C. in a solution containing 10% SDS and 0.01 M HCl. The absorbance of each well was measured in a microplate reader (Labsystems) at 540 nm and a reference wavelength of 690 nm. To translate the A540 values into the number of live cells in each well, the A540 values were compared to those on standard A540 versus cell number curves generated for each cell line. The percentage of survival was calculated using the formula: % survival=[Live cell number (test)/Live cell number (control)]×100. The IC50 values were calculated by nonlinear regression analysis using the graphed Prism Software version 2.0 (GraphPad Software, Inc., San Diego, Calif.).

Assay [1] relates to Lewis Lung Carcinoma Cells (LL2). Kind of assay: Syngeneic mouse model of K-Ras mutant NSCLC. In kind it is in vivo. Here is the method: Lewis Lung Carcinoma Cells (LL2) were purchased from ATCC. These murine NSCLC cells derived from C57BL/6 mice have a heterozygous Kras^G12C mutation (H. Y. Li et al., 2017, Cancer Immunol. Res. 5:767-77; B. Deskin et al., 2020, Translational Oncol. 13:135-45). Eight-9 weeks old, male C57/BL6 mice were inoculated with 1×10^6 LL2 cells in 200 μL PBS that were injected subcutaneously in the right flank. Treatments were initiated immediately after inoculation with LL/2 cells. Control mice were treated with intraperitoneal injections of 50 μL vehicle (DMSO), whereas test mice were treated with either AP-1 or AP-8 at the specified dose levels. Treatments were administered twice daily, 5 days per week for a total of 2 weeks. The clinical predictive value of this mouse model is well established (Kellar A, Egan C, Morris D. Preclinical Murine Models for Lung Cancer: Clinical Trial Applications. Biomed Research International Volume 2015|Article ID 621324|https://doi.org/10.1155/2015/621324).
In the 1st experiment, mice were treated twice daily with intraperitoneal injections of vehicle (50 μL DMSO) (N=10) or AP-1 (125 μg˜5 mg/kg in 50 μL DMSO) (N=7) according to a 5 days on 2 days off weekly schedule for 4 weeks. Mice were monitored daily until tumors became visible on and tumor growth rates were compared between day 16 and day 20 by measuring the size of the tumors with a caliper in three dimensions. Tumor size was expressed as tumor volume in cubic millimeters (mm3). Tumor volumes were calculated using the formula for the volume of a prolate spheroid, V=4/3×3.14×length/2×width/2×depth/2. […] The depicted Whisker plots represent the median and values (Min to Max. Shown all points) for the tumor volume on day 16 (FIG. 11A), day 18 (FIG. 11 FIG. 11B) and day 20 (C), and fold-growth in 48 hours (FIG. 11D; day 18 size: day 16 size) measured in tumors from mice in each group. […] Statistical significance between the two groups is shown by the depicted p-values above the plots were computed using an independent samples T-test.
Similarly, in the 2nd experiment, C57BL/6 mice were inoculated subcutaneously with LL2 cells (1×10^6/inoculum, volume: 200 μL) in the right flank. Mice were treated twice daily with intraperitoneal injections of vehicle (50 μL DMSO) (N=10) or AP-1 (100 μg˜4 mg/kg in 50 μL DMSO) (N=20) according to a 5 days on 2 days off weekly schedule for 2 weeks. Mice were monitored daily until tumors became visible on day 10. Tumor growth was assessed on day 10 and day 14 by measuring the size of the tumors with a caliper in three dimensions. Tumor size was expressed as tumor volume in cubic millimeters (mm^3). Tumor volumes were calculated using the formula for the volume of a prolate spheroid, V=4/3×3.14×length/2×width/2×depth/2. […]
In the 3rd experiment, mice were treated twice daily with intraperitoneal injections of vehicle (50 μL DMSO) (N=10) or AP-1 (125 μg˜5 mg/kg in 50 μL DMSO) (N=18) according to a 5 days on 2 days off weekly schedule for 4 weeks. Mice were monitored daily until tumors became visible on day 13. Tumor growth was re-assessed every other day between day 13 and day 29 by measuring the size of the tumors with a caliper in three dimensions. Tumor size was expressed as tumor volume in cubic millimeters (mm^3). Tumor volumes were calculated using the formula for the volume of a prolate spheroid, V=4/3×3.14×length/2×width/2×depth/2. […]

The next assay concerns MOLT-3. Kind of assay: MTT cytotoxicity assay, MOLT-3. In kind it is cell-based, human. To be noted: 48 h, read-out: IC50 against MOLT-3. As for the experimental part: as §1, §2
For orientation: Tetrazolium dyes change colour on reduction, which living cells bring about.

What is called IC50 is the concentration at which inhibition is half-maximal. As for “2,4,6-Tri (9-O-dihydrocinchoninyl)pyrimidine [AP-5]”, the IC50 in the assay on NALM-6 was 1.7 µM.
Regarding `C=CC1CN2CCC1CC2C(Oc1cc(OC(c2ccnc3ccccc23)C2CC3CCN2CC3C=C)nc(OC(c2ccnc3ccccc23)C2CC3CCN2CC3C=C)n1)c1ccnc2ccccc12` (stereo not shown) [AP-1, 2,4,6-Tri(9-O-cinchoninyl)pyrimidine], the IC50 in the assay with NALM-6 is 3.4 µM; in the assay on MOLT-3, 6.7 µM. For the same molecule, the “fold-growth in 48 hours (day 18 size: day 16 size)” value in assay [1] (1st experiment, 5 mg/kg i.p. twice daily) is reported as “significantly reduced the rapid growth rate of the LL2 tumors”. Moreover, the “average tumor volume versus vehicle” value in assay [1] (1st experiment, 5 mg/kg i.p. twice daily, day 16 to day 20) is listed as “remained significantly smaller than the average tumor volume in vehicle-treated control mice”; in assay [1] (2nd experiment, 4 mg/kg i.p. twice daily, day 10 and day 14) it was “remained significantly smaller than the average tumor volume in vehicle-treated control mice”; in assay [1] (3rd experiment, 5 mg/kg i.p. twice daily, day 13 to day 29), “remained significantly smaller than the average tumor volume in vehicle-treated control mice”.
On to `CCC1CN2CCC1CC2C(Oc1cc(OC(c2ccnc3ccc(OC)cc23)C2CC3CCN2CC3CC)nc(OC(c2ccnc3ccc(OC)cc23)C2CC3CCN2CC3CC)n1)c1ccnc2ccc(OC)cc12` (stereo not shown) [AP-8, 2,4,6-Tri (9-O-dihydroquinidinyl)pyrimidine], for which the 50% inhibitory concentration (IC50) in the assay on NALM-6 was found to be 3.7 µM; with MOLT-3, 5.2 µM. The “average tumor volume versus vehicle” value in assay [1] (2 mg/kg i.p. twice daily, day 14 to day 25) is recorded as “remained significantly smaller than the average tumor volume in vehicle-treated control mice”.
